We go through 19 compounds from patent publication US12065443B2, “Compounds and pharmaceutical compositions thereof for the treatment of diseases” (priority 2017, dated 2024).

Each structure is given as a SMILES string. Some results are limits rather than exact numbers.

Holding throughout (assay): biochemical
Test [1] deals with T1, SIK2 (Homo sapiens, UniProt Q9H0K1).
T1 construct: purchased ThermoFisher Scientific PV4792
The note with it: 33P radioactive SIK kinase assay, AMARA peptide, 10 μM ATP. The procedure: (§1) The principle of the ^33P radioactive kinase assay consists in measuring the incorporated ^33P into the substrate AMARA peptide when phosphorylated by SIK1, SIK2 or SIK3 using [^33P]-g-ATP, which correlates with kinase activity.
(§2) 1% DMSO and 10 μM staurosporine final concentrations are used as negative and positive controls.
(§3) 11 μL of enzyme-substrate mixture is added on the assay plates. The reactions are started by adding 9 μL ATP mixture, consisting of non-labeled and ^33P-labeled ATP, on the assay plates.
(§4) The reactions are stopped by adding 25 μL phosphoric acid (150 mM) to the reactions.
(§5) After harvesting the kinase reactions, the filter plates are washed 6 times with phosphoric acid (75 mM). […] The top of the plates are sealed with TopSeal-A. Read-out is performed with a TopCount instrument (PerkinElmer Inc.).

The target in test [2] is T2, SIK3 (Homo sapiens, UniProt Q9Y2K2).
T2 construct: purchased SignalChem S12-11G-100
The procedure: as §1, §2, §3, §4, §5

Test [3] concerns the target T3, SIK1 (Homo sapiens, UniProt P57059).
T3 construct: purchased Carna Biosciences 02-131
Conditions: 33P radioactive SIK kinase assay, AMARA peptide, 10 μM ATP; read-out: SIK1 IC50. The procedure:
as §1, §2, §3, §4, §5

T1 sequence (Q9H0K1 whole entry): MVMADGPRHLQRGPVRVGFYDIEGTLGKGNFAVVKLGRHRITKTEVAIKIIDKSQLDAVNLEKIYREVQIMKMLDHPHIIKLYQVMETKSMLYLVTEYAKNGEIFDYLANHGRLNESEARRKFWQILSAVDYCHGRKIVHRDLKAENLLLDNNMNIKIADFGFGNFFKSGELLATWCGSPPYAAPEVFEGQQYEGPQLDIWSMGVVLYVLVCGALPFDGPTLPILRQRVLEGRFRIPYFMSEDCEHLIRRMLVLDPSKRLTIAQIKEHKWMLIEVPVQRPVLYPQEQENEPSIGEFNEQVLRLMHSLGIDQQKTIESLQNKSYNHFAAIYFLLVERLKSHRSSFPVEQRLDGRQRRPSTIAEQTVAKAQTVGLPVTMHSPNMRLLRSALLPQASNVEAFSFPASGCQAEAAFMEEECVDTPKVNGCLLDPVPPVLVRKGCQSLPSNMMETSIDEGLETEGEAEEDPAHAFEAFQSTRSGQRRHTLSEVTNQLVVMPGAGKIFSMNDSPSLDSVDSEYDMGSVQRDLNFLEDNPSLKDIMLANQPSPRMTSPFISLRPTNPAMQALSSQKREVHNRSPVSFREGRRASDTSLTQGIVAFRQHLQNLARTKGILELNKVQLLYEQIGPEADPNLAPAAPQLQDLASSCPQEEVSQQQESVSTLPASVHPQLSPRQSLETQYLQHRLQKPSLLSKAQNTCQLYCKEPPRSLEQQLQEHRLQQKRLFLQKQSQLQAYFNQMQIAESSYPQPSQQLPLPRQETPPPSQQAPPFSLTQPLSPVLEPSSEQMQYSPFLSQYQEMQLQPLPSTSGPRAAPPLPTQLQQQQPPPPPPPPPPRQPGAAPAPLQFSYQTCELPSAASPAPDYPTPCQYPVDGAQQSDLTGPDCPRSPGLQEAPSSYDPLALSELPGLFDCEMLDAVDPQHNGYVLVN
T2 sequence (Q9Y2K2 whole entry): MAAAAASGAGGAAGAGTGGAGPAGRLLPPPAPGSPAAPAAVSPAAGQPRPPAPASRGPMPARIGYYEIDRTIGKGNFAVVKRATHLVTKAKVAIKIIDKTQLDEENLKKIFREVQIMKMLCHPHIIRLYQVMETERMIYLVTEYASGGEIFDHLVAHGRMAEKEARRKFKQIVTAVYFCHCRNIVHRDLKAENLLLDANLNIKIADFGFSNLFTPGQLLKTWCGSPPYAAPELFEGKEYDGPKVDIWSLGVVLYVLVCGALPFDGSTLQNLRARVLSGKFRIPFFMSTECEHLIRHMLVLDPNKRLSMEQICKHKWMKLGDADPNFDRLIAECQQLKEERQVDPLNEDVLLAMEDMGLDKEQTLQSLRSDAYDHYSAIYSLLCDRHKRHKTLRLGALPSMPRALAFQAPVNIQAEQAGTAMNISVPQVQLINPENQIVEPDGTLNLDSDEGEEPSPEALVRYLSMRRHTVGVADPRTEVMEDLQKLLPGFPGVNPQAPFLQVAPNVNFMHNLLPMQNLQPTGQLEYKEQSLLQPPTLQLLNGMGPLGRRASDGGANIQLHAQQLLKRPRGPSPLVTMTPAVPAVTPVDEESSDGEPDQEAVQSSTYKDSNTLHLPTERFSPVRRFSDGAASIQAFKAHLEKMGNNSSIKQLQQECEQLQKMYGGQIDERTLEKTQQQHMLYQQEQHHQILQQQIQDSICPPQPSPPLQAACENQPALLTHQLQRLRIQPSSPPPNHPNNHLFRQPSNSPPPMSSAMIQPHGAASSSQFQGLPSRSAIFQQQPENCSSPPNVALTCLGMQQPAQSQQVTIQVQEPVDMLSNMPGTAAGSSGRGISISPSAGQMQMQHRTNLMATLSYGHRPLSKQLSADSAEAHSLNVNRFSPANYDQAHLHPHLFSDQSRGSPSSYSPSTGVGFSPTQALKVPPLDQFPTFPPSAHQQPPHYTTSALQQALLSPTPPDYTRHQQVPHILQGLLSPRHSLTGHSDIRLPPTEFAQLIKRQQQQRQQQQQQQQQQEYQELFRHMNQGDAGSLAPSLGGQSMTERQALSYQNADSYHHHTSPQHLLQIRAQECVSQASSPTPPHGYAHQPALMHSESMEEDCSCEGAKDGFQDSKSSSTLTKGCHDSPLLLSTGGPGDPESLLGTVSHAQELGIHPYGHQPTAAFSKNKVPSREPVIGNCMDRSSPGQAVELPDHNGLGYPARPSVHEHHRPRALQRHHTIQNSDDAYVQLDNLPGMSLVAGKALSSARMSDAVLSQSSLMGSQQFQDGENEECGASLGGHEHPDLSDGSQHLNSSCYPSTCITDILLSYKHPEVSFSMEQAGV
T3 sequence (P57059 whole entry): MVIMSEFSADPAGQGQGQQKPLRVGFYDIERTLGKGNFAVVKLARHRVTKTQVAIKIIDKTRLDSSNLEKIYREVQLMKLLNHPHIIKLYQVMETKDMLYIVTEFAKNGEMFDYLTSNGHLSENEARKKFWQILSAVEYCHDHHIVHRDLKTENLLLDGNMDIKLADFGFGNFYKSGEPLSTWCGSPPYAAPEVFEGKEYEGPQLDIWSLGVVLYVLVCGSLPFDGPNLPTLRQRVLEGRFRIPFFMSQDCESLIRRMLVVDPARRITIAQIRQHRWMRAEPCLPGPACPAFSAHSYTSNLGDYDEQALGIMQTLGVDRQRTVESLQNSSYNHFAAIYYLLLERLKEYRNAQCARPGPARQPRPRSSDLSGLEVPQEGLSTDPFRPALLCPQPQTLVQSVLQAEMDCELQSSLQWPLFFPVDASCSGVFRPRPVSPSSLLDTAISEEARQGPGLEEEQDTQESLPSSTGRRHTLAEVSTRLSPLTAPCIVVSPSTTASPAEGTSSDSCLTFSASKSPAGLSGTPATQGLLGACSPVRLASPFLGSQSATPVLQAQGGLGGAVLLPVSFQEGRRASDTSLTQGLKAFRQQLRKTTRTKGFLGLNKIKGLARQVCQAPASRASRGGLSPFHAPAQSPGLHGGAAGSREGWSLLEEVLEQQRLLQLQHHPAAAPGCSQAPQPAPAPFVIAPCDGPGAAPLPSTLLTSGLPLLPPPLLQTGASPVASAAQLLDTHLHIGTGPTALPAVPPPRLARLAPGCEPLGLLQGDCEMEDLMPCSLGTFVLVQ

The IC50 is the concentration that gives 50% inhibition. As for `COc1cc(-n2cnc3cc(-c4cnn(C)c4)ccc32)cc(OC)c1C(=O)NC(C)C` [compound 115, N-isopropyl-2,6-dimethoxy-4-[5-(1-methylpyrazol-4-yl)benzimidazol-1-yl]benzamide], the IC50 in test [1], in test [2] and in test [3] was 10 to 100 nM throughout.

As for `COc1cc(-n2cnc3cc(-c4cnn(C)c4)ccc32)cc(OC)c1C(=O)N1CCC1CO` (stereo not drawn) [compound 193, [2,6-dimethoxy-4-[5-(1-methylpyrazol-4-yl)benzimidazol-1-yl]phenyl]-[2-(hydroxymethyl)azetidin-1-yl]methanone], the IC50 in test [1], in test [2] and in test [3] was above 500 nM throughout.

`COc1cc(-n2cnc3cc(-c4cncn4C)ccc32)cc(OC)c1C(=O)NCC(F)(F)F` [compound 135, 2,6-dimethoxy-4-[5-(3-methylimidazol-4-yl)benzimidazol-1-yl]-N-(2,2,2-trifluoroethyl)benzamide]: the IC50 in test [1] was 100 to 500 nM; in test [2], 100 to 500 nM; in test [3] it was above 500 nM.

As for `COc1cc(-n2cnc3cc(-c4cnn(C)c4)ccc32)cc(OC)c1C(=O)N1CC2(C1)CS(=O)(=O)C2` [compound 195, [2,6-dimethoxy-4-[5-(1-methylpyrazol-4-yl)benzimidazol-1-yl]phenyl]-(2,2-dioxo-2λ^6-thia-6-azaspiro[3.3]heptan-6-yl)methanone], the IC50 in test [1], in test [2] and in test [3] was 100 to 500 nM in each case.

As to `COc1cc(-n2cnc3cc(-c4cnn(C)c4)ccc32)cc(OC)c1C(=O)NC1CS(=O)(=O)C1` [compound 64, N-(1,1-dioxothietan-3-yl)-2,6-dimethoxy-4-[5-(1-methylpyrazol-4-yl)benzimidazol-1-yl]benzamide], the IC50 fell in the range of 10 to 100 nM in test [1], 10 to 100 nM in test [2] and 100 to 500 nM in test [3].

In the case of `COc1cc(-n2cnc3cc(-c4cn[nH]c4)ccc32)cc(OC)c1C(=O)NCC(F)(F)F` [compound 47, 2,6-dimethoxy-4-[5-(1H-pyrazol-4-yl)benzimidazol-1-yl]-N-(2,2,2-trifluoroethyl)benzamide], the IC50 in test [1] was in the range of 10 to 100 nM; in test [2], 0.01 to 10 nM; in test [3], 10 to 100 nM.

With `COc1cc(-n2cnc3cc(-c4cnn(C)c4)ccc32)cc(OC)c1C(=O)N1CCC(c2ccccc2)C1` (stereo not drawn) [compound 196, [2,6-dimethoxy-4-[5-(1-methylpyrazol-4-yl)benzimidazol-1-yl]phenyl]-(3-phenylpyrrolidin-1-yl)methanone], the IC50 in test [1], in test [2] and in test [3] was above 500 nM throughout.

As to `COCCN(C)C(=O)c1c(OC)cc(-c2cnc3cc(-c4cnn(C)c4)ccn23)cc1OC` [compound 131, 2,6-dimethoxy-N-(2-methoxyethyl)-N-methyl-4-[7-(1-methylpyrazol-4-yl)imidazo[1,2-a]pyridin-3-yl]benzamide], the IC50 was 100 to 500 nM in test [1], 100 to 500 nM in test [2] and above 500 nM in test [3].

In the case of `COc1cc(-n2cnc3cc(-c4cnn(C)c4)ccc32)cc(OC)c1C(=O)NC[C@H]1COCCO1` [compound 69, N-[[(2S)-1,4-dioxan-2-yl]methyl]-2,6-dimethoxy-4-[5-(1-methylpyrazol-4-yl)benzimidazol-1-yl]benzamide], the IC50 in test [1], in test [2] and in test [3] was 100 to 500 nM each time.

For the compound `COC(=O)C1CN(C(=O)c2c(OC)cc(-c3cnc4cc(-c5cnn(C)c5)ccn34)cc2OC)C1` [compound 226, methyl 1-[2,6-dimethoxy-4-[7-(1-methylpyrazol-4-yl)imidazo[1,2-a]pyridin-3-yl]benzoyl)azetidine-3-carboxylate], the IC50 in test [1], in test [2] and in test [3] was 10 to 100 nM in each case.

For `COc1cc(-n2cnc3cc(-c4cnn(C)c4)ccc32)cc(OC)c1C(=O)NCC(C)C` [compound 113, N-isobutyl-2,6-dimethoxy-4-[5-(1-methylpyrazol-4-yl)benzimidazol-1-yl]benzamide], the IC50 in test [1], in test [2] and in test [3] was 10 to 100 nM in each case.

`COc1cc(-n2cnc3cc(-n4nc(C)cc4C)ccc32)cc(OC)c1C(=O)NCC(F)(F)F` [Cpd 165, 4-[5-(3,5-dimethylpyrazol-1-yl)benzimidazol-1-yl]-2,6-dimethoxy-N-(2,2,2-trifluoroethyl)benzamide]: the IC50 in test [1], in test [2] and in test [3] was above 500 nM throughout.

As to `COc1cc(-n2cnc3cc(-c4cnn(C)c4)ccc32)cc(OC)c1C(=O)N1CC(C2CCOCC2)C1` [compound 191, [2,6-dimethoxy-4-[5-(1-methylpyrazol-4-yl)benzimidazol-1-yl]phenyl]-(3-tetrahydropyran-4-ylazetidin-1-yl)methanone], the IC50 in test [1], in test [2] and in test [3] was 100 to 500 nM in each case.

As to `COc1cc(-n2cnc3cc(-n4ccc(C)n4)ccc32)cc(OC)c1C(=O)NCC(F)(F)F` [Cpd 154, 2,6-dimethoxy-4-[5-(3-methylpyrazol-1-yl)benzimidazol-1-yl]-N-(2,2,2-trifluoroethyl)benzamide], the IC50 in test [1], in test [2] and in test [3] was 100 to 500 nM each time.

With `COc1cc(-n2cnc3cc(-c4nccn4C)ccc32)cc(OC)c1C(=O)NCC(F)(F)F` [compound 134, 2,6-dimethoxy-4-[5-(1-methylimidazol-2-yl)benzimidazol-1-yl]-N-(2,2,2-trifluoroethyl)benzamide], the IC50 is 10 to 100 nM in test [1], 100 to 500 nM in test [2] and above 500 nM in test [3].

Take `CCn1cc(-c2ccc3c(c2)ncn3-c2cc(OC)c(C(=O)N(C)CCOC)c(OC)c2)cn1` [compound 27, 4-[5-(1-ethylpyrazol-4-yl)benzimidazol-1-yl]-2,6-dimethoxy-N-(2-methoxyethyl)-N-methyl-benzamide]: the IC50 in test [1], in test [2] and in test [3] was above 500 nM in each case.

For the compound `COc1cc(-n2cnc3cc(-c4cnnc(C)c4)ccc32)cc(OC)c1C(=O)NCC(F)(F)F` [compound 121, 2,6-dimethoxy-4-[5-(6-methylpyridazin-4-yl)benzimidazol-1-yl]-N-(2,2,2-trifluoroethyl)benzamide], the IC50 in test [1] was 100 to 500 nM; in test [2], 10 to 100 nM; in test [3], above 500 nM.

As for `COc1cc(-n2cnc3cc(-c4cnn(C)c4)ccc32)cc(OC)c1C(=O)NCCC#N` [compound 59, N-(2-cyanoethyl)-2,6-dimethoxy-4-[5-(1-methylpyrazol-4-yl)benzimidazol-1-yl]benzamide], the IC50 in test [1], in test [2] and in test [3] was 10 to 100 nM throughout.

With `COc1cc(-n2cnc3cc(-c4c[nH]cn4)ccc32)cc(OC)c1C(=O)NCC(F)(F)F` [compound 153, 4-[5-(1H-imidazol-4-yl)benzimidazol-1-yl]-2,6-dimethoxy-N-(2,2,2-trifluoroethyl)benzamide], the IC50 in test [1], in test [2] and in test [3] was 10 to 100 nM throughout.
